Data reported in patent US20230083973A1, “SUBSTITUTED CYCLOPROPYL-2,2'-BIP[…], ANALOGUES THEREOF, AND METHODS USING SAME” (priority 2019, published 2023).
Where two headings read alike, the source gives them in different places.

Test system: HBsAg
Assay: HBsAg assay: inhibition of HBsAg in HepG2.2.15 cells (chemiluminescence immunoassay of supernatant)
Assay type: cell-based, hepatitis B virus
Details: HBsAg in supernatant at day 6 after exposure to compound, 0.5% DMSO
Protocol: Inhibition of HBsAg was determined in HepG2.2.15 cells. Cells were maintained in culture medium containing 10% fetal calf serum, […], Glutamine, penicillin/streptomycin. Cells were seeded in 96-well collagen-coated plate at a density of 30,000 cells/well. Serially diluted compounds were added to cells next day at the final DMSO concentration of 0.5%. Cells were incubated with compounds for 2-3 days, after which medium was removed. Fresh medium containing compounds was added to cells for additional 3-4 days. At day 6 after exposure of compounds, supernatant was collected, the HBsAg immunoassay (microplate-based chemiluminescence immunoassay kits, CLIA, Autobio Diagnosics Co., Zhengzhou, China, Catalog # CL0310-2) was used to determine the level of HBsAg according to manufactory instruction. Dose-response curves were generated and the EC50 value (effective concentrations that achieved 50% inhibitory effect) were determined using XLfit software. In addition, cells were seeded at a density of 5,000 cells/well for determination of cell viability in the presence and absence of compounds by using CellTiter-Glo reagent (Promega).
Table 1 illustrates EC50 values obtained by the HBsAg assay for selected compounds.

[1] = read-out: sAg EC50, HepG2.2.15 cells
[2] = Hepatitis B virus, HepG2.2.15, 144 h, read-out: sAg EC50, HepG2.2.15 cells

Compound	EC50 [1]	EC50 [2]
CC1(C)CCN(c2cc(C3CC3c3cnc(-c4ncccn4)nc3)cc(F)c2F)C1 (single isomer, unassigned) [Example 221, trans-5-(2-(3-(3,3-Dimethylpyrrolidin-1-yl)-4,5-difluorophenyl)cyclopropyl)-2,2′-bipyrimidine]	320 nM	–
COc1ccc(C2CC2c2cnc(-c3ncccn3)nc2)cc1F (single isomer, unassigned) [Example 13, trans-5-(2-(3-Fluoro-4-methoxyphenyl)cyclopropyl)-2,2′-bipyrimidine]	82 nM	–
Fc1cc(C2CC2c2cnc(-c3ncccn3)nc2)cc(N2CCC3(COC3)C2)c1F (single isomer, unassigned) [Example 223, trans-6-(5-(2-([2,2′-Bipyrimidin]-5-yl)cyclopropyl)-2,3-difluorophenyl)-2-oxa-6-azaspiro[3.4]octane]	10 nM	–
CC(C)OC1CN(c2cc([C@@H]3C[C@H]3c3cnc(-c4ncccn4)nc3)cc(F)c2F)C1 (relative stereo) [Example 210, trans-5-(2-(3,4-Difluoro-5-(3-isopropoxyazetidin-1-yl)phenyl)cyclopropyl)-2,2′-bipyrimidine]	–	55 nM
Fc1cc(C2CC2c2cnc(-c3ncccn3)nc2)cc(-n2ccnc2)c1F (single isomer, unassigned) [Example 181, trans-5-(2-(3,4-Difluoro-5-(1H-imidazol-1-yl)phenyl)cyclopropyl)-2,2′-bipyrimidine]	390 nM	–
COc1cc(C2CC2c2ccc(-c3ncccn3)nn2)ccc1F (single isomer, unassigned) [Example 191, trans-3-(2-(4-Fluoro-3-methoxyphenyl)cyclopropyl)-6-(pyrimidin-2-yl)pyridazine]	2000 nM	–
Fc1c(Cl)cc(C2CC2c2cnc(-c3ncccn3)nc2)cc1N1CCCC1 (single isomer, unassigned) [Example 108, trans-5-(2-(3-Chloro-4-fluoro-5-(pyrrolidin-1-yl)phenyl)cyclopropyl)-2,2′-bipyrimidine]	78 nM	–
CC(C)(C)S(=O)(=O)C1CN(c2cc([C@@H]3C[C@H]3c3cnc(-c4ncccn4)nc3)cc(F)c2F)C1 (relative stereo) [Example 211, trans-5-(2-(3-(3-(tert-Butylsulfonyl)azetidin-1-yl)-4,5-difluorophenyl)cyclopropyl)-2,2′-bipyrimidine]	–	110 nM
Fc1cc(C2CC2c2cnc(-c3ncccn3)nc2)cc(O[C@H]2CCOC2)c1F (single isomer, unassigned) [Example 250]	76 nM	–
OC1CN(c2cc(C3CC3c3cnc(-c4ncccn4)nc3)ccc2F)C1 (single isomer, unassigned) [Example 53, trans-1-(5-(2-([2,2′-Bipyrimidin]-5-yl)cyclopropyl)-2-fluorophenyl)azetidin-3-ol]	500 nM	–
Fc1cc(C2CC2c2cnc(-c3ncccn3)nc2)cc(N2CC(c3ccccc3)C2)c1F (single isomer, unassigned) [Example 256, trans-5-(2-(3,4-Difluoro-5-(3-phenylazetidin-1-yl)phenyl)cyclopropyl)-2,2′-bipyrimidine]	28 nM	–
COCCOc1cc(F)c(Cl)cc1C1CC1c1cnc(-c2ncccn2)nc1 (single isomer, unassigned) [Example 157, trans-5-(2-(5-Chloro-4-fluoro-2-(2-methoxyethoxy)phenyl)cyclopropyl)-2,2′-bipyrimidine]	49000 nM	–
Fc1cc([C@@H]2C[C@H]2c2cnc(-c3ncccn3)nc2)cc(-n2cccn2)c1F (single isomer, unassigned) [Example 254, trans-5-(2-(3,4-Difluoro-5-(1H-pyrazol-1-yl)phenyl)cyclopropyl)-2,2′-bipyrimidine]	47 nM	–
COC1CN(c2cc([C@@H]3C[C@H]3c3cnc(-c4ncccn4)nc3)cc(F)c2F)C1 (single isomer, unassigned) [Example 123, trans-5-(2-(3,4-Difluoro-5-(3-methoxyazetidin-1-yl)phenyl)cyclopropyl)-2,2′-bipyrimidine]	12 nM	–
c1cnc(-c2ncc([C@@H]3C[C@H]3c3cccc4ccccc34)cn2)nc1 (relative stereo) [Example 166, trans-5-(2-(Naphthalen-1-yl)cyclopropyl)-2,2′-bipyrimidine]	–	65 nM
O[C@@H]1CCN(c2cc(C3CC3c3cnc(-c4ncccn4)nc3)cc(F)c2F)C1 (single isomer, unassigned) [Example 104]	–	78 nM
CC(=O)N1CC[C@H](Nc2cc(C3CC3c3cnc(-c4ncccn4)nc3)cc(F)c2F)C1 (single isomer, unassigned) [Example 225]	350 nM	–

Compound	EC50 [1]	EC50 [2]
Oc1cnn(-c2cc(C3CC3c3cnc(-c4ncccn4)nc3)cc(F)c2F)c1 (single isomer, unassigned) [Example 259, trans-1-(5-(2-([2,2′-Bipyrimidin]-5-yl)cyclopropyl)-2,3-difluorophenyl)-1H-pyrazol-4-ol]	2000 nM	–
Fc1cc(C2CC2c2cnc(-c3ncccn3)nc2)cc(N2CC3(CCOCC3)C2)c1F (single isomer, unassigned) [Example 136, trans-2-(5-(2-([2,2′-Bipyrimidin]-5-yl)cyclopropyl)-2,3-difluorophenyl)-7-oxa-2-azaspiro[3.5]nonane]	920 nM	–
Fc1ccc(C2CC2c2cnc(-c3ncccn3)nc2)cc1Cl (single isomer, unassigned) [Example 30, trans-5-(2-(3-Chloro-4-fluorophenyl)cyclopropyl)-2,2′-bipyrimidine]	80 nM	–
COc1cc(C2CC2c2cnc(-c3ncccn3)nc2)cc(N2CCCC2)c1F (single isomer, unassigned) [Example 100, trans-5-(2-(4-Fluoro-3-methoxy-5-(pyrrolidin-1-yl)phenyl)cyclopropyl)-2,2′-bipyrimidine]	61 nM	–
COc1cc(C2CC2c2cnc(-c3ncccn3)nc2-c2ccc3nc(C)sc3c2)ccc1F (single isomer, unassigned) [Example 140, trans-6-(5-(2-(4-Fluoro-3-methoxyphenyl)cyclopropyl)-[2,2′-bipyrimidin]-4-yl)-2-methylbenzo[d]thiazole]	37000 nM	–
COc1c(Cl)ccc(C2CC2c2cnc(-c3ncccn3)nc2)c1Cl (single isomer, unassigned) [Example 133, trans-5-(2-(2,4-Dichloro-3-methoxyphenyl)cyclopropyl)-2,2′-bipyrimidine]	130 nM	–
CN(c1cc([C@@H]2C[C@H]2c2cnc(-c3ncccn3)nc2)cc(F)c1F)C1COC1 (relative stereo) [Example 233, trans-N-(5-(2-([2,2′-Bipyrimidin]-5-yl)cyclopropyl)-2,3-difluorophenyl)-N-methyloxetan-3-amine]	–	84 nM
COc1cccnc1-c1ncc([C@@H]2C[C@H]2c2cc(F)c(F)c(OC)c2)cn1 (relative stereo) [Example 180, trans-5-(2-(3,4-Difluoro-5-methoxyphenyl)cyclopropyl)-2-(3-methoxypyridin-2-yl)pyrimidine]	–	1000 nM
COCCCn1cc2c(F)cc(C3CC3c3cnc(-c4ncccn4)nc3)cc2n1 (single isomer, unassigned) [Example 269, trans-6-(2-([2,2′-Bipyrimidin]-5-yl)cyclopropyl)-4-fluoro-2-(3-methoxypropyl)-2H-indazole]	46 nM	–
COc1cc([C@@H]2C[C@H]2c2cnc(-c3cnccn3)nc2)cc(F)c1F (relative stereo) [Example 178, trans-5-(2-(3,4-Difluoro-5-methoxyphenyl)cyclopropyl)-2-(pyrazin-2-yl)pyrimidine]	–	460 nM
COc1cc(C2CN(c3cc([C@@H]4C[C@H]4c4cnc(-c5ncccn5)nc4)cc(F)c3F)C2)cc(F)c1F (relative stereo) [Example 213, trans-5-(2-(3-(3-(3,4-Difluoro-5-methoxyphenyl)azetidin-1-yl)-4,5-difluorophenyl)cyclopropyl)-2,2′-bipyrimidine]	–	73 nM
CN(C)c1cc(C2CC2c2cnc(-c3ncccn3)nc2)ccc1F (single isomer, unassigned) [Example 63, trans-5-(2-([2,2′-Bipyrimidin]-5-yl)cyclopropyl)-2-fluoro-N,N-dimethylaniline]	390 nM	–
Cc1nc2c(F)cc([C@@H]3C[C@H]3c3cnc(-c4ncccn4)nc3)cc2s1 (relative stereo) [Example 272, trans-6-(2-([2,2′-Bipyrimidin]-5-yl)cyclopropyl)-4-fluoro-2-methylbenzo[d]thiazole]	–	73 nM
Cc1cn(-c2cc(C3CC3c3cnc(-c4ncccn4)nc3)cc(F)c2F)cn1 (single isomer, unassigned) [Example 261, trans-5-(2-(3,4-Difluoro-5-(4-methyl-1H-imidazol-1-yl)phenyl)cyclopropyl)-2,2′-bipyrimidine]	670 nM	–
COc1cc([C@@H]2C[C@H]2c2cnc(-c3ncccn3)nc2C)ccc1F (relative stereo) [Example 16, trans-5-(2-(4-Fluoro-3-methoxyphenyl)cyclopropyl)-4-methyl-2,2′-bipyrimidine]	–	750 nM
COc1cc(C2CC2c2cnc(-c3ncccn3)nc2)cc(C)c1F (single isomer, unassigned) [Example 151, trans-5-(2-(4-Fluoro-3-methoxy-5-methylphenyl)cyclopropyl)-2,2′-bipyrimidine]	81 nM	–
